Read-outs that look alike come from different tables or passages of the source.
Tested on: Caco-2 cells
Assay: Intestinal barrier function improvement: suppression of cytokine-induced TEER reduction in Caco-2 monolayer
Format: cell-based, human
Conditions: for inhibition at 10 µM: Homo sapiens, read-out: TEER reduction suppression ratio (%); for Relative value of TEER reduction suppression ratio of gallate type compound (non-gallate type compound taken as 1): 10 μM, gallate vs non-gallate in the same evaluation
Procedure: Caco-2 cells were cultured for three weeks at 37° C. in Transwell (manufactured by Millicell Corporation) using DMEM (Dulbecco's modified Eagle's medium). A medium was removed from a plate of cultured Caco-2 cells, and the well was washed 3 times with serum-free DMEM. The well was filled with the medium. Then, the transepithelial electrical resistance (TEER) of Caco-2 monolayer cells was measured by Millicell-ERS (manufactured by Millipore Corporation). Cells (TEER≥1000 Ω·cm^2) determined that a sufficient tight junction was formed were selected, and used for the next screening. Then, to test solutions (media) on both apical and basolateral membrane sides, a sample, TNFα (40 ng/mL), IL-1β (20 ng/mL), and IFNγ (10 ng/mL) were added, followed by cultivating for 48 hours. The sample was dissolved in dimethyl sulfoxide (DMSO), and the solution was then added to the test solutions. In this case, a well to which inflammatory cytokine (TNFα, IL-1β, and IFNγ) and the sample were not added was provided as normal. A well to which inflammatory cytokine was added and the sample was not added was provided as control. After the cultivation, TEER was measured again, to evaluate whether the sample suppressed the reduction (decrease) of TEER due to the inflammatory cytokine.
The TEER reduction suppression ratio (%) due to the sample was determined according to the following formula from the TEER values of the well to which the sample was added, normal, and control.
TEER reduction suppression ratio (%)−100×((TEER of well to which sample is added)−(TEER of control))/((TEER of normal)−(TEER of control))
In this evaluation system, as the TEER reduction suppression ratio (%) is higher, an intestinal barrier function improvement effect is higher.
The intestinal barrier function improvement action was evaluated by the same method (the method for evaluating intestinal barrier function improvement action described in Example 4) as that in Example 4. In Example 5, the sample was added into the test solution so that a sample concentration was set to 10 μmol/L. The TEER reduction suppression ratio (%) of the sample was obtained according to the formula from the TEER values of a well to which the sample was added, normal, and control in the same manner as in Example 4.

[1] = Caco-2, 48 h, sample 10 μM (10 μmol/L), Example 5, Table 4
[2] = sample 10 μM (10 μmol/L), Example 5, Table 4
[3] = Caco-2, sample 10 μM, TNFα 40 ng/mL, IL-1β 20 ng/mL, IFNγ 10 ng/mL, 48 hours, Table 2

Compound | inhibition at 10 µM [1] [%] | further results
O=C(O)c1cc(O)c(O)c(O)c1Oc1cc2c(c(O)c1O)-c1c(cc(O)c(O)c1O)C(=O)O[C@@H]1C(COC2=O)OC(O)C2OC(=O)c3cc(O)c(O)c(O)c3-c3c(cc(O)c(O)c3O)C(=O)O[C@H]21 (some centres unmarked) [Praecoxin A] | 74 | 
O=C(O[C@H]1COC(=O)c2cc(O)c(O)c(O)c2-c2c(cc(O)c(O)c2O)C(=O)O[C@H]1C1OC(=O)c2cc(O)c(O)c(O)c2-c2c(O)c(O)c(O)c3c2C(=O)O[C@H]1[C@@H]3c1c(O)cc(O)c2c1OC(c1ccc(O)c(O)c1)C(O)C2)c1cc(O)c(O)c(O)c1 (some centres unmarked) [Stenophyllanin A, stenophyllanin A] |  | TEER reduction suppression ratio (%) [2]: 96%
O=C(OC[C@H]1O[C@@H](OC(=O)c2cc(O)c(O)c(O)c2)[C@H](O)[C@@H](O)[C@@H]1OC(=O)c1cc(O)c(O)c(O)c1)c1cc(O)c(O)c(O)c1 [1,4,6-tri-O-galloyl-β-D-glucose] | 56 | 
Catechin [reference compound] |  | TEER reduction suppression ratio (%) (sample 10 μM, TNFα 40 ng/mL, IL-1β 20 ng/mL, IFNγ 10 ng/mL, 48 hours, Table 2): 15%
stenophyllanin B |  | TEER reduction suppression ratio (%) [2]: 126%
O=C1O[C@H]2[C@@H]3OC(=O)c4cc(O)c(O)c(O)c4-c4c(cc(O)c(O)c4O)C(=O)OC[C@H]2O[C@@H](OC(=O)c2cc(O)c(O)c(O)c2)[C@@H]3OC(=O)c2cc(O)c(O)c3c2[C@@H]2C1=CC(=O)[C@](O)(O3)C2(O)O [Geranlin, geraniin] | 83 | 
O=C(OC[C@H]1O[C@@H](OC(=O)c2cc(O)c(O)c(O)c2)[C@H](OC(=O)c2cc(O)c(O)c(O)c2)[C@@H](OC(=O)c2cc(O)c(O)c(O)c2)[C@@H]1OC(=O)c1cc(O)c(O)c(O)c1)c1cc(O)c(O)c(O)c1 [1,2,3,4,6-penta-O-galloyl-β-D-glucose] | 64 | 
O=C(O[C@@H]1Cc2c(O)cc(O)cc2O[C@H]1c1cc(O)c(O)c(O)c1)c1cc(O)c(O)c(O)c1 [Gallocatechin gallate] |  | Relative value of TEER reduction suppression ratio of gallate type compound (non-gallate type compound taken as 1): 3.2; inhibition at 10 µM [3]: 60%
Oc1cc(O)c2c(c1)O[C@H](c1cc(O)c(O)c(O)c1)[C@@H](O)C2 [Gallocatechin, reference compound] |  | inhibition at 10 µM [3]: 19%
O=C(O[C@H]1[C@@H]2OC(=O)c3cc(O)c(O)c(O)c3-c3c(cc(O)c(O)c3O)C(=O)OC[C@H]2OC(O)[C@@H]1OC(=O)c1cc(O)c(O)c(O)c1)c1cc(O)c(O)c(O)c1 (some centres unmarked) [Tellimagrandin I, tellimagrandin I] |  | TEER reduction suppression ratio (%) [2]: 65%
Oc1cc(O)c2c(c1)O[C@H](c1ccc(O)c(O)c1)[C@H](O)C2 [Epicatechin, reference compound] |  | inhibition at 10 µM [3]: 14%
O=C(OC[C@H]1O[C@@H](OC(=O)c2cc(O)c(O)c(O)c2)[C@H](OC(=O)c2cc(O)c(O)c(O)c2)[C@@H](O)[C@@H]1OC(=O)c1cc(O)c(O)c(O)c1)c1cc(O)c(O)c(O)c1 [1,2,4,6-tetra-O-galloyl-β-D-glucose] | 80 | 
O=c1c(O)c(-c2ccc(O)c(O)c2)oc2cc(O)cc(O)c12 [quercetin, reference compound] | 38 | 
O=C1OC[C@H]2OC(O)[C@@H]3OC(=O)c4cc(O)c(O)c(O)c4-c4c(cc(O)c(O)c4O)C(=O)O[C@H]3[C@@H]2OC(=O)c2cc(O)c(O)c(O)c2-c2c1cc(O)c(O)c2O (some centres unmarked) [Pedunculagin] | 72 | 
O=C(OC[C@H]1O[C@@H](O)[C@H](OC(=O)c2cc(O)c(O)c(O)c2)[C@@H](OC(=O)c2cc(O)c(O)c(O)c2)[C@@H]1OC(=O)c1cc(O)c(O)c(O)c1)c1cc(O)c(O)c(O)c1 [2,3,4,6-tetra-O-galloyl-β-D-glucose] | 93 | 
O=C(O[C@@H]1Cc2c(O)cc(O)cc2O[C@@H]1c1ccc(O)c(O)c1)c1cc(O)c(O)c(O)c1 [Epicatechin gallate] |  | Relative value of TEER reduction suppression ratio of gallate type compound (non-gallate type compound taken as 1): 2.5; inhibition at 10 µM [3]: 35%
O=C(O[C@@H]1COC(=O)c2cc(O)c(O)c(O)c2-c2c(cc(O)c(O)c2O)C(=O)O[C@H]1[C@@H]1OC(=O)c2cc(O)c(O)c(O)c2-c2c(O)c(O)c(O)c3c2C(=O)O[C@H]1[C@@H]3O)c1cc(O)c(O)c(O)c1 [Casuarinin] | 82 | 
O=C(OC[C@H]1O[C@@H](OC(=O)c2cc(O)c(O)c(O)c2)[C@H](OC(=O)c2cc(O)c(O)c(O)c2)[C@@H](OC(=O)c2cc(O)c(O)c(O)c2)[C@@H]1O)c1cc(O)c(O)c(O)c1 [1,2,3,6-tetra-O-galloyl-β-D-glucose] | 98 | 
